From patent US4265901A, “2-Oxybenzimidazoline compounds” (priority 1979, dated 1981)
Where “and” joins values, the source holds several entries; their conditions need not be identical. Equal entries are not always repeated. Structures can show the parent of a compound that is named as a salt.

Assays:
Large Crabgrass = assay: Post-emergence herbicide test, large crabgrass; type: in vivo, Digitaria sanguinalis
Method: (§1) In this evaluation, each compound to be tested was dissolved in a 1:1 mixture of acetone and ethanol containing a small amount of Toximul R and Toximul S (each a sulfonate/nonionic blend produced by Stepan Chemical Company, Northfield, Illinois). The solution was then diluted with deionized water to a composition of the following concentrations, by weight: Plant species used as indicators of herbicidal activity were planted in galvanized pans (flats) 31.5 cm. long, 21.5 cm. wide, and 8.0 cm. deep. The bottoms of the flats had holes to facilitate drainage. The soil used was a 1:1 ratio by volume of masonry sand and shredded top soil. Seeds of seven indicator species were planted in rows perpendicular to the long axis of the flat, one species per row, and covered with 0.5 to 1.0 cm. of sterilized soil. Indicator species and approximate number of seeds planted were as follows: Flats that were to receive preemergence treatments were planted one day prior to, or on the same day treatments were applied. Flats that were to receive postemergence treatments were planted 9 days prior to treatment and placed in a growth chamber until the day of treatment. In the growth chamber, flats received 12 to 18 hours of light per day and were subject to temperatures of 75° to 85° F. The formulated test compound was applied uniformly to the indicator species with a modified DeVilbiss atomizer using air pressure of 3 to 5 psi. Each flat received 12.5 ml. of spray solution which was equal to 200 gallons/acre total spray volume. Plants were maintained in a greenhouse after treatment. Herbicidal effects of chemicals were evaluated by two injury rating systems 18 days after preemergence applications and 14 days after postemergence applications. The degree of plant injury was based on a 1 to 5 scale and a single numerical rating was assigned to each test species as follows: […]

Pigweed = assay: Pre-emergence herbicide test, pigweed; type: in vivo, Amaranthus retroflexus
Method: as §1

Southern armyworm = Southern armyworm test; type: in vivo, Spodoptera eridania; conditions: 1000 ppm, 4 days; as to Southern Armyworm Stom. (mortality rating): ranges in brackets are in %
Method: In this evaluation, each compound to be tested was dissolved in a 1:1 mixture of acetone and ethanol containing a small amount of Toximul R and Toximul S (each a sulfonate/nonionic blend produced by Stephan Chemical Company, Northfield, Ill.). The solution was then diluted with distilled water to a concentration of 1000 ppm of test compound.
This test was conducted with second to third instar larvae of Spodoptera eridania Cramer, Order Lepidoptera, Family Noctuidae. Uniform larvae (3rd instar) about 1 to 1.2 cm. in length were picked by hand from flats of Henderson lima beans and placed in plastic petri dishes.
The procedure otherwise was the same as used with the Mexican bean beetle reported above, except that 5 ml. of a formulation containing 100 ppm (0.01%) DDT [1,1,1-trichloro-2,2-bis(p-chlorophenyl)ethane] was used as the reference standard.

Foxtail = assay: Post-emergence herbicide test, foxtail; type: in vivo, Setaria italica
Method: as §1

Wild Oat = assay: Pre-emergence herbicide test, wild oat; type: in vivo
Method: as §1, with “soil.” for “soil. Seeds of seven indicator species were planted in rows perpendicular to the long axis of the flat, one species per row, and covered with 0.5 to 1.0 cm. of sterilized soil. Indicator species and approximate number of seeds planted were as follows:”

Mustard = assay: Pre-emergence herbicide test, mustard; type: in vivo
Method: as §1, with “soil.” for “soil. Seeds of seven indicator species were planted in rows perpendicular to the long axis of the flat, one species per row, and covered with 0.5 to 1.0 cm. of sterilized soil. Indicator species and approximate number of seeds planted were as follows:”

Alfalfa = assay: Pre-emergence herbicide test, alfalfa; type: in vivo
Method: as §1, with “soil.” for “soil. Seeds of seven indicator species were planted in rows perpendicular to the long axis of the flat, one species per row, and covered with 0.5 to 1.0 cm. of sterilized soil. Indicator species and approximate number of seeds planted were as follows:”

Row | SMILES | plant injury rating (Large Crabgrass; 1 lb/A) | plant injury rating (Large Crabgrass; 2 lb/A) | plant injury rating (Large Crabgrass; 4 lb/A) | plant injury rating (Large Crabgrass; 8 lb/A) | plant injury rating (Pigweed; 8 lb/A) | plant injury rating (Foxtail; 1 lb/A) [BS] | plant injury rating (Foxtail; 2 lb/A) [BS] | plant injury rating (Foxtail; 4 lb/A) [BS] | plant injury rating (Foxtail; 8 lb/A) | plant injury rating (Large Crabgrass; 1/4 lb/A) [BS] | plant injury rating (Wild Oat; 1/2 lb/A) | plant injury rating (Wild Oat; 1 lb/A) | plant injury rating (Wild Oat; 2 lb/A) | plant injury rating (Pigweed; 1/2 lb/A) | plant injury rating (Pigweed; 2 lb/A) | Southern Armyworm Stom. (mortality rating) (Southern armyworm) | plant injury rating (Mustard; 1/2 lb/A) | plant injury rating (Mustard; 1 lb/A) | plant injury rating (Mustard; 2 lb/A) | plant injury rating (Alfalfa; 1/2 lb/A) | further results
1 | O=[N+]([O-])c1cc(Cl)cc2c1NC(O)(C(F)F)N2 (stereo not shown) [Example 5, 2-Hydroxy-2-(Difluoromethyl)-4-Nitro-6-Chlorobenzimidazoline, Calcium Salt] | 3BS | 3BS | 4BS | 4BS | 2S | 4 | 4 | 3 | 5D |  |  |  |  |  |  |  |  |  |  |  | Southern Armyworm Feed. (feeding rating) (Southern armyworm): 1 (1-50% of the leaves eaten); Southern Armyworm Stom. (mortality rating) (Southern armyworm; Calcium Salt): 3 (100) and 2 (51-99)
2 | O=[N+]([O-])c1cc(C(F)(F)F)cc2c1NC(O)(C(F)(F)C(F)F)N2O (stereo not shown) [Example 12, 1,2-Dihydroxy-2-(1,1,2,2-Tetrafluoroethyl)-4-Nitro-6-(Trifluoromethyl)Benzimidazoline] | 5D | 5D |  | 3BS | 5N | 4 | 4 |  | 3BS | 3 | 1 (no injury) | 1 (no injury) | 2B | 1 (no injury) | 4S | 0 (0) | 1 (no injury) | 1 (no injury) | 2S | 1 (no injury) | plant injury rating (Large Crabgrass; 1/8 lb/A): 3BS; plant injury rating (Pigweed; 1 lb/A): 3S; plant injury rating (Alfalfa; 1 lb/A): 1 (no injury); plant injury rating (Alfalfa; 2 lb/A): 3SB; plant injury rating (Foxtail; 1/4 lb/A): 2B; plant injury rating (Foxtail; 1/8 lb/A): 2S
3 | O=[N+]([O-])c1cc(C(F)(F)F)cc2c1NC(O)(C(F)(F)C(F)F)N2 (stereo not shown) [Example 2, 2-Hydroxy-2-(1,1,2,2-Tetrafluoroethyl)-4-Nitro-6-(Trifluoromethyl)Benzimidazoline, Sodium Salt, and Hydrate] | 4BS | 5D | 5D | 5D | 5D | 4 | 4 | 4 | 5D | 2 | 1 (no injury) | 1 (no injury) | 2 (slight injury) | 2S | 4SR | 0 (0) | 2S | 4B | 5D | 3SR | plant injury rating (Large Crabgrass; 1/2 lb/A): 3BS; plant injury rating (Wild Oat; 1/4 lb/A): 1 (no injury); plant injury rating (Wild Oat; 4 lb/A): 5 (death); plant injury rating (Pigweed; 1/4 lb/A): 1 (no injury); plant injury rating (Pigweed; 4 lb/A): 4RS; plant injury rating (Mustard; 1/4 lb/A): 1 (no injury); plant injury rating (Mustard; 4 lb/A): 5D; plant injury rating (Alfalfa; 1/4 lb/A): 1 (no injury); plant injury rating (Alfalfa; 2 lb/A): 5D; plant injury rating (Alfalfa; 4 lb/A): 5N; plant injury rating (Foxtail; 1/2 lb/A): 3BS; plant injury rating (Foxtail; 1/4 lb/A): 3BS
